From ChEMBL document CHEMBL6121040, “Synthesis and biological assessment of BUB1B inhibitors for the treatment of clear cell renal cell carcinoma” (Eur J Med Chem, 2025)
Activity calls are given as the source filed them. No cut-off for these calls is given here.

Columns and labels:
CAKI-1 [1] = assay: Cytotoxicity against human CAKI-1 cells assessed as cell viability at 10 uM incubated for 1 day by MTT assay relative to control; assay type: functional; details: CAKI-1, 24 h, read-out: Activity
CAKI-1 [2] = assay: Induction of apoptosis in human CAKI-1 cells assessed as increase in cleaved PARP level by measuring fold change at IC50 concentration incubated for 1 day by Western blot analysis (reference value: 1); assay type: functional
CAKI-1 [3] = assay: Induction of apoptosis in human CAKI-1 cells assessed as decrease in Bcl-2 protein level by measuring fold change at IC50 concentration incubated for 1 day by Western blot analysis (reference value: 1); assay type: functional
CAKI-1 [4] = assay: Induction of apoptosis in human CAKI-1 cells assessed as increase in cleaved caspase-3 protein level at 10 uM incubated for 1 day by Western blot analysis; assay type: functional, cell-based
CAKI-1 [5] = assay: Induction of apoptosis in human CAKI-1 cells assessed as increase in cleaved caspase-8 protein level at 10 uM incubated for 1 day by Western blot analysis; assay type: functional, cell-based
[6] = target: T1, Mitotic checkpoint serine/threonine-protein kinase BUB1 beta (Homo sapiens, UniProt O60566); assay: Destabilization of BUB1B in human CAKI-1 cells assessed as reduction in BUB1B protein level at 20 uM preincubated for 1 hrs followed by incubation under 45 degreeC for 3 mins by CETSA analysis (reference value: 1); assay type: cell-based; details: time 63.0 min
T1 sequence (O60566 whole entry): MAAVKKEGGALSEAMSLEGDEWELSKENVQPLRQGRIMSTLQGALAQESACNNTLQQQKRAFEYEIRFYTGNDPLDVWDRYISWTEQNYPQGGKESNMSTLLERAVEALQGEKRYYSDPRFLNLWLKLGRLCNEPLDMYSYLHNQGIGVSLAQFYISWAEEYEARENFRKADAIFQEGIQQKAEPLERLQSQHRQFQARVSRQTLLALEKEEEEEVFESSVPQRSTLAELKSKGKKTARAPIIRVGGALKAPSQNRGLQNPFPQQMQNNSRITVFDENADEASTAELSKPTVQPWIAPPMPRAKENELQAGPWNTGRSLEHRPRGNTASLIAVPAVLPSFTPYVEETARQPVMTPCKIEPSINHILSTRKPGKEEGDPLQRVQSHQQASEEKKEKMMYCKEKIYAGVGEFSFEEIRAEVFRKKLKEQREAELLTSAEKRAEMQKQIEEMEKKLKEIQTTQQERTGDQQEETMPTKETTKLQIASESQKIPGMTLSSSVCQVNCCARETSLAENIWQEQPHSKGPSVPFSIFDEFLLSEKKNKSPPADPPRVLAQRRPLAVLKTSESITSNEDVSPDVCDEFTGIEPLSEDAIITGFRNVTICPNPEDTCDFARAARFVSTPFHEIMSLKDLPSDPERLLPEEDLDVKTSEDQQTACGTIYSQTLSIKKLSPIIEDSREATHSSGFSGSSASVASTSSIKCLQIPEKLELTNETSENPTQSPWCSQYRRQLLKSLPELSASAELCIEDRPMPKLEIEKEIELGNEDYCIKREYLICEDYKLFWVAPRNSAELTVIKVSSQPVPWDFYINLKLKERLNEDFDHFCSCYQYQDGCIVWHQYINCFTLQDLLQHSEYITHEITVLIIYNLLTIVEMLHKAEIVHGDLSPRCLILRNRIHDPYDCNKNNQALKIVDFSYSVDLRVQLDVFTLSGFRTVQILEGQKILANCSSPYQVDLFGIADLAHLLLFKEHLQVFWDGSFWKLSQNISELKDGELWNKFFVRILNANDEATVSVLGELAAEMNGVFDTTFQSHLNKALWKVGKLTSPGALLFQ

[7] = Downregulation of BUB1B protein expression level in human CAKI-1 cells at 10 uM incubated for 1 day by Western blot analysis (Rvb =1); assay type: functional
CAKI-1 [8] = assay: Cytotoxicity against human CAKI-1 cells assessed as reduction in cell viability at 10 uM by MTT assay; assay type: functional, cell-based; details: time 1-3 day
[9] = Downregulation of BUB1B protein expression level in human CAKI-1 cells at IC50 concentration incubated for 1 day by Western blot analysis (Rvb =1); assay type: functional
CAKI-1 [10] = assay: Cytotoxicity against human CAKI-1 cells assessed as reduction in cell viability incubated for 1 day by MTT assay; assay type: functional, cell-based; details: CAKI-1, 24 h
CAKI-1 [11] = assay: Induction of apoptosis in human CAKI-1 cells assessed as increase in cleaved caspase-9 protein level at 10 uM incubated for 1 day by Western blot analysis; assay type: functional, cell-based
[12] = target: T1, Mitotic checkpoint serine/threonine-protein kinase BUB1 beta; assay: Inhibition of recombinant BUB1B (unknown origin) incubated for 60 mins in presence of [gamma-33P]-ATP by microplate scintillation counter analysis
CAKI-1 [13] = assay: Induction of apoptosis in human CAKI-1 cells assessed as increase in cleaved PARP level by measuring fold change at 10 uM incubated for 1 day by Western blot analysis (reference value: 1); assay type: functional
CAKI-1 [14] = assay: Cytotoxicity against human CAKI-1 cells assessed as cell viability at 10 uM incubated for 3 day by MTT assay relative to control; assay type: functional; details: CAKI-1, 72 h, read-out: Activity
CAKI-1 [15] = assay: Induction of apoptosis in human CAKI-1 cells assessed as decrease in Bcl-2 protein level by measuring fold change at 10 uM incubated for 1 day by Western blot analysis (reference value: 1); assay type: functional
CAKI-1 [16] = assay: Cytotoxicity against human CAKI-1 cells assessed as necrotic cell death incubated for 3 days by LDH assay; assay type: functional, cell-based; details: CAKI-1, 72 h
CAKI-1 [17] = assay: Cytotoxicity against human CAKI-1 cells assessed as reduction in cell viability incubated for 3 days by MTT assay; assay type: functional, cell-based; details: for IC50: CAKI-1, 72 h; for Activity: time 3.0 day
[18] = Cytotoxicity against human MRC5 cells assessed as cell viability at 1 uM incubated for 1 day relative to control; assay type: toxicity, cell-based; details: read-out: Activity
[19] = Cytotoxicity against human MRC5 cells assessed as cell viability at 5 uM incubated for 1 day relative to control; assay type: toxicity, cell-based; details: read-out: Activity
[20] = Cytotoxicity against human HaCaT cells assessed as cell viability at 5 uM incubated for 1 day relative to control; assay type: toxicity, cell-based; details: read-out: Activity
[21] = Cytotoxicity against human HaCaT cells assessed as cell viability at 1 uM incubated for 1 day relative to control; assay type: toxicity, cell-based; details: read-out: Activity
CAKI-1 [22] = assay: Cytotoxicity against human CAKI-1 cells assessed as necrotic cell death incubated for 1 day by LDH assay; assay type: functional, cell-based; details: CAKI-1, 24 h

With `Cc1cnc(Nc2ccc(OCc3cccc(F)c3)c(Cl)c2)nc1Nc1cccc(S(=O)(=O)NC(C)(C)C)c1` the viability at 10 µM (CAKI-1 [1]) was 96.1%.

For `COc1cnccc1Nc1nc(-c2nn(Cc3c(F)cc(OCCO)cc3F)c3ccccc23)ncc1OC`, the “fold change (FC)” value (CAKI-1 [2]) was 2.89, the “fold change (FC)” value (CAKI-1 [3]) was 0.62 and the Activity (CAKI-1 [4]) was “inactive”. For the same molecule, the viability at 10 µM (CAKI-1 [1]) was 57.8%, the Activity (CAKI-1 [5]) was “inactive” and the fold change (FC) [6] was 1.33. For the same molecule, the “fold change (FC)” value [7] was 0.73, the Activity (CAKI-1 [8]) was “Time-dependent-effect” and the “fold change (FC)” value [9] was 0.65. The IC50 (CAKI-1 [10]) was 24.4 µM, the Activity (CAKI-1 [11]) was “inactive” and the IC50 [12] was > 100 µM. The “fold change (FC)” value (CAKI-1 [13]) was 1.23, the viability at 10 µM (CAKI-1 [14]) was 49.7% and the “fold change (FC)” value (CAKI-1 [15]) was 1.03. For the same molecule, the EC50 (CAKI-1 [16]) was 15.9 µM, the IC50 (CAKI-1 [17]) was 10.4 µM and the Activity (CAKI-1 [17]) was “Dose-dependent-effect”.

With `C#CCN1CCN(c2ccc(Nc3ncc(C)c(Nc4cccc(S(=O)(=O)NC(C)(C)C)c4)n3)cc2)CC1` the viability at 10 µM (CAKI-1 [1]) was 41.2%.

In the case of `Cc1cc(Nc2ncc(Cl)c(Nc3ccccc3S(=O)(=O)C(C)C)n2)c(OC(C)C)cc1C1CCNCC1` [CERITINIB], the IC50 [12] is reported as 13.1 µM.

`Cc1cnc(Nc2cccc(S(=O)(=O)NC(C)(C)C)c2)nc1Nc1cccc(S(=O)(=O)NC(C)(C)C)c1` showed a viability at 10 µM (CAKI-1 [1]) of 64.7%.

With `Cc1ccc(Nc2ncc(C)c(Nc3cccc(S(=O)(=O)NC(C)(C)C)c3)n2)cc1Nc1nccc(-c2cccnc2)n1` the viability at 10 µM (CAKI-1 [1]) was 77%.

For `Cc1cnc(Nc2ccc(N3CCN(C(=O)N(C)C)CC3)cc2)nc1Nc1cccc(S(=O)(=O)NC(C)(C)C)c1`, the viability at 10 µM (CAKI-1 [1]) was 36.2%.

With `Cc1cnc(Nc2ccc(N3CCN(C(=O)c4cccc(F)c4)CC3)cc2)nc1Nc1cccc(S(=O)(=O)NC(C)(C)C)c1` the viability at 10 µM (CAKI-1 [1]) was 37.3%.

In the case of `COc1cc(Nc2ncc(C)c(Nc3cccc(S(=O)(=O)N4CCOCC4)c3)n2)cc(OC)c1OC`, the “fold change (FC)” value (CAKI-1 [2]) is reported as 3.76, the “fold change (FC)” value (CAKI-1 [3]) is reported as 0.5 and the viability at 24 h, 1 µM [18] is reported as 89.2%. The Activity (CAKI-1 [4]) was “Active”, the viability at 10 µM (CAKI-1 [1]) was 35.8% and the Activity (CAKI-1 [5]) was “Active”. The viability at 24 h, 5 µM [19] was 70.6%, the fold change (FC) [6] was 0.65 and the “fold change (FC)” value [7] was 0.12. The “fold change (FC)” value [9] was 0.22, the IC50 (CAKI-1 [10]) was 1.83 µM and the Activity (CAKI-1 [11]) was “Active”. The IC50 [12] was 9.67 µM, the viability at 24 h, 5 µM [20] was 75.3% and the “fold change (FC)” value (CAKI-1 [13]) was 10.69. For the same molecule, the viability at 10 µM (CAKI-1 [14]) was 38.5%, the “fold change (FC)” value (CAKI-1 [15]) was 0.64 and the EC50 (CAKI-1 [16]) was 41.2 µM. For the same molecule, the IC50 (CAKI-1 [17]) was 2.9 µM, the Activity (CAKI-1 [17]) was “Dose-dependent-effect” and the viability at 24 h, 1 µM [21] was 105%.

With `COc1ccc(Nc2ncc(C)c(Nc3cccc(S(=O)(=O)NC(C)(C)C)c3)n2)c(OC)c1` the viability at 10 µM (CAKI-1 [1]) was 66.5%.

In the case of `COc1cc(Nc2ncc(C)c(Nc3cccc(S(=O)(=O)NC4CCC4)c3)n2)cc(OC)c1`, the viability at 10 µM (CAKI-1 [1]) is reported as 42%.

With `Cc1cnc(Nc2ccc(N3CCN(C)CC3)cc2)nc1Nc1cccc(S(=O)(=O)NC(C)(C)C)c1` the “fold change (FC)” value (CAKI-1 [2]) was 2.65, the “fold change (FC)” value (CAKI-1 [3]) was 0.62 and the viability at 24 h, 1 µM [18] was 107%. The Activity (CAKI-1 [4]) was “Active”, the viability at 10 µM (CAKI-1 [1]) was 43.6% and the Activity (CAKI-1 [5]) was “Active”. The viability at 24 h, 5 µM [19] was 38.8%, the fold change (FC) [6] was 2.19 and the “fold change (FC)” value [7] was 0.02. For the same molecule, the “fold change (FC)” value [9] was 0.14, the IC50 (CAKI-1 [10]) was 1.5 µM and the Activity (CAKI-1 [11]) was “Active”. The IC50 [12] was 67.3 µM, the viability at 24 h, 5 µM [20] was 39.4% and the IC50 (CAKI-1 [22]) was 23.9 µM. For the same molecule, the “fold change (FC)” value (CAKI-1 [13]) was 24.35, the viability at 10 µM (CAKI-1 [14]) was 18.9% and the “fold change (FC)” value (CAKI-1 [15]) was 0.28. The EC50 (CAKI-1 [16]) was 6.6 µM, the IC50 (CAKI-1 [17]) was 1.1 µM and the Activity (CAKI-1 [17]) was “Dose-dependent-effect”. It also gave a viability at 24 h, 1 µM [21] of 76.4%.

Work on `Cc1cnc(Nc2ccccc2P(C)(C)=O)nc1Nc1cccc(S(=O)(=O)NC(C)(C)C)c1` yielded a viability at 10 µM (CAKI-1 [1]) of 84.4%.

With `Cc1cn(-c2cc(Nc3ncc(C)c(Nc4cccc(S(=O)(=O)NC(C)(C)C)c4)n3)cc(C(F)(F)F)c2)cn1` the viability at 10 µM (CAKI-1 [1]) was 49.6%.

Work on `COc1ccccc1NC(=O)N1CCN(c2ccc(Nc3ncc(C)c(Nc4cccc(S(=O)(=O)NC(C)(C)C)c4)n3)cc2)CC1` yielded a viability at 10 µM (CAKI-1 [1]) of 48.4%.

With `COc1cc(Nc2ncc(C)c(Nc3ccc(N4CCN(C)CC4)cc3)n2)cc(OC)c1OC` the viability at 10 µM (CAKI-1 [1]) was 39.9%.

For `COc1cc(Nc2ncc(C)c(Nc3cccc(S(=O)(=O)NC4CCC4)c3)n2)cc(OC)c1OC`, the viability at 10 µM (CAKI-1 [1]) was 33%.

In the case of `C=CC(=O)N1CCN(c2ccc(Nc3ncc(C)c(Nc4cccc(S(=O)(=O)NC(C)(C)C)c4)n3)cc2)CC1`, the viability at 10 µM (CAKI-1 [1]) is reported as 44.6%.

Work on `COc1cc(Nc2ncc(C)c(Nc3cccc(S(=O)(=O)NC(C)(C)C)c3)n2)c(Cl)cc1Cl` yielded a viability at 10 µM (CAKI-1 [1]) of 108%.

Work on `COc1cc(Nc2ncc(C)c(Nc3cccc(S(=O)(=O)N4CCOCC4)c3)n2)cc(OC)c1` yielded a viability at 10 µM (CAKI-1 [1]) of 45.4%.
